pIC50: −log10 of the molar value. In brackets after ≈: the same amount, converted by molar mass.
Legend:
[1] = molecular target: Phosphorylase b kinase gamma catalytic chain, liver/testis isoform (Homo sapiens, UniProt P15735, F290L); experiment: Inhibition of recombinant human PhKgamma2 F290L (1 to 301 residues) usingKKLNRTLSFAEPG as substrate incubated for 40 mins in presence of [gamma33P]ATP by radiometric scintillation counting analysis
[2] = molecular target: Death-associated protein kinase 2 (Homo sapiens, UniProt Q9UIK4); experiment: Inhibition of recombinant full length human DAPK2 using Calmodulin as substrate incubated 40 mins in presence of [gamma-33ATP] by radiometric scintillation counting analysis
[3] = molecular target: Bone morphogenetic protein receptor type-1B (Homo sapiens, UniProt O00238); experiment: Inhibition of human recombinant ALK6 (148 to end residues) using casein as substrate incubated for 40 mins in presence of [gamma-33P]ATP by radiometric scintillation counting analysis
[4] = molecular target: Tyrosine-protein kinase Fyn (Homo sapiens, UniProt P06241); experiment: Inhibition of recombinant full length human Fyn using […] as substrate after 40 mins in presence of [gamma-33ATP] by radiometric scintillation counting analysis
[5] = molecular target: MAP/microtubule affinity-regulating kinase 4 (Homo sapiens, UniProt Q96L34); experiment: Inhibition of recombinant full length human MARK4 using KKKVSRSGLYRSP as substrate incubated for 40 mins in presence of [gamma-33ATP by radiometric scintillation counting analysis
[6] = molecular target: Casein kinase I isoform gamma-2 (Homo sapiens, UniProt P78368); experiment: Inhibition of recombinant human CK1gamma2 (18 to end residues) using KRRRALS(p)VAS as substrate incubated for 40 mins in presence of [gamma-33ATP] by radiometric scintillation counting analysis
[7] = molecular target: Ribosomal protein S6 kinase alpha-6 (Homo sapiens, UniProt Q9UK32); experiment: Inhibition of recombinant full length human Rsk4 using LRRASLG as substrate incubated for 40 mins in presence of [gamma33P]ATP by radiometric scintillation counting analysis
[8] = molecular target: Tyrosine-protein kinase receptor TYRO3 (Homo sapiens, UniProt Q06418); experiment: Inhibition of recombinant human RSE (451 to end residues) using KVEKIGEGTYGVV as substrate incubated for 40 mins in presence of [gamma33P]ATP by radiometric scintillation counting analysis
[9] = Half life in rat liver microsomes measured upto 45 mins in presence of NADPH by LC-MS analysis; format: ADME, Microsome
[10] = molecular target: Ribosomal protein S6 kinase alpha-3 (Homo sapiens, UniProt P51812); experiment: Inhibition of recombinant human Rsk2 (2 to end residues) using KKKNRTLSVA as substrate incubated for 40 mins in presence of [gamma33P]ATP by radiometric scintillation counting analysis
[11] = molecular target: Death-associated protein kinase 1 (Homo sapiens, UniProt P53355); experiment: Inhibition of recombinant human DAPK1 (1 to 296 residues) using KKLNRTLSFAEPG as substrate incubated 40 mins in presence of [gamma-33ATP] by radiometric scintillation counting analysis
[12] = molecular target: MAPK/MAK/MRK overlapping kinase (Homo sapiens, UniProt Q9UQ07); experiment: Inhibition of recombinant human MOK (1 to 343 residues) using RSRSRSRSRSRSR as substrate incubated for 40 mins in presence of [gamma-33ATP by radiometric scintillation counting analysis
[13] = molecular target: Fibroblast growth factor receptor 1 (Homo sapiens, UniProt P11362); experiment: Inhibition of recombinant human FGFR1 (456 to 765 residues) using KKKSPGEYVNIEF as substrate after 40 mins in presence of [gamma-33ATP] by radiometric scintillation counting analysis
[14] = Solubility of compound in miniQ water at 1 mg at 37 degreeC incubated under shaking conditions for overnight by LC-MS analysis; format: physicochemical
[15] = molecular target: Mitogen-activated protein kinase kinase kinase kinase 5 (Homo sapiens, UniProt Q9Y4K4); experiment: Inhibition of recombinant full length human MAP4K5 using myelin basic protein as substrate incubated for 40 mins in presence of [gamma-33ATP by radiometric scintillation counting analysis
[16] = molecular target: cAMP-dependent protein kinase catalytic subunit PRKX (Homo sapiens, UniProt P51817); experiment: Inhibition of recombinant human full length PrKX using RRRLSFAEPG as substrate incubated for 40 mins in presence of [gamma33P]ATP by radiometric scintillation counting analysis
[17] = molecular target: Proto-oncogene tyrosine-protein kinase Src (Homo sapiens, UniProt P12931, T341M); experiment: Inhibition of recombinant full length human SRC T341M mutant using GGEEEEYFELVKK as substrate incubated for 40 mins in presence of [gamma33P]ATP by radiometric scintillation counting analysis
Tau-tubulin kinase 2 = Tau-tubulin kinase 2 (Homo sapiens, UniProt Q6IQ55); experiment: Inhibition of recombinant human TTBK2 (1 to331 residues) using casein as substrate incubated for 40 mins in presence of [gamma33P]ATP by radiometric scintillation counting analysis
[18] = Inhibition of recombinant full length human PRAK R291E mutant using KKLRRTLSVA as substrate incubated for 40 mins in presence of [gamma33P]ATP by radiometric scintillation counting analysis
Ephrin type-A receptor 8 = Ephrin type-A receptor 8 (Homo sapiens, UniProt P29322); experiment: Inhibition of recombinant human EPhA8 (615 to 911 residues) at 10 uM using KTFCGTPEYLAPE as substrate incubated for 40 mins in presence of [gamma-33PATP] by radiometric scintillation counting analysis
[19] = molecular target: Tyrosine-protein kinase JAK3 (Homo sapiens, UniProt P52333); experiment: Inhibition of human recombinant JAK3 (781 to end residues) using GGEEEEYFELVKK as substrate after 40 mins by [gamma-33ATP] by radiometric scintillation counting analysis
[20] = molecular target: Rho-associated protein kinase 1 (Homo sapiens, UniProt Q13464); experiment: Inhibition of recombinant human ROCK1 (17 to 535 residues) using […] as substrate incubated for 40 mins in presence of [gamma-33P]ATP and 10 uM ATP by radiometric scintillation counting analysis
[21] = molecular target: Calcium/calmodulin-dependent protein kinase type 1 (Homo sapiens, UniProt Q14012); experiment: Inhibition of recombinant human CaMK1alpha (2 to end residues) using calmodulin as substrate incubated for 40 mins in presence of [gamma-33ATP] by radiometric scintillation counting analysis
[22] = molecular target: Fibroblast growth factor receptor 2 (Homo sapiens, UniProt P21802); experiment: Inhibition of recombinant human FGFR2 (456 to 770 residues) using poly(Glu, Tyr) 4:1 as substrate after 40 mins in presence of [gamma-33ATP] by radiometric scintillation counting analysis
[23] = molecular target: Ribosomal protein S6 kinase alpha-1 (Homo sapiens, UniProt Q15418); experiment: Inhibition of recombinant full length human Rsk1 using KKKNRTLSVA as substrate incubated for 40 mins in presence of [gamma33P]ATP by radiometric scintillation counting analysis
[24] = molecular target: Mitogen-activated protein kinase 11 (Homo sapiens, UniProt Q15759); experiment: Inhibition of recombinant human full length SAPK2b using myelin basic protein as substrate incubated for 40 mins in presence of [gamma33P]ATP by radiometric scintillation counting analysis

Sequence of Tyrosine-protein kinase Fyn (P06241 whole entry): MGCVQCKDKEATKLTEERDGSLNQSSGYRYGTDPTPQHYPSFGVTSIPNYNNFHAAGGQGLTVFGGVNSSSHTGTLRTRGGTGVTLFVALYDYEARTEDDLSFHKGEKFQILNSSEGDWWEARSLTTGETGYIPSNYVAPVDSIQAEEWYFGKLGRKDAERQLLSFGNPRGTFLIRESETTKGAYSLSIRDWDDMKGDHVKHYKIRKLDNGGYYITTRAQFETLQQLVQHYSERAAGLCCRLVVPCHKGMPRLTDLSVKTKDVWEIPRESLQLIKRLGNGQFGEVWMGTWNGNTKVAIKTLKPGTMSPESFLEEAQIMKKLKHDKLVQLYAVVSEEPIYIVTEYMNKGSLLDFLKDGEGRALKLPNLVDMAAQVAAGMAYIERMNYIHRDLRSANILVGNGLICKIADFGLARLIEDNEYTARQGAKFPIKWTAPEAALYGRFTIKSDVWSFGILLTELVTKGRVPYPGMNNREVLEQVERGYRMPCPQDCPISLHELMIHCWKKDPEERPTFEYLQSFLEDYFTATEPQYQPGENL
Sequence of Death-associated protein kinase 1 (P53355 whole entry, the tested form may be a part): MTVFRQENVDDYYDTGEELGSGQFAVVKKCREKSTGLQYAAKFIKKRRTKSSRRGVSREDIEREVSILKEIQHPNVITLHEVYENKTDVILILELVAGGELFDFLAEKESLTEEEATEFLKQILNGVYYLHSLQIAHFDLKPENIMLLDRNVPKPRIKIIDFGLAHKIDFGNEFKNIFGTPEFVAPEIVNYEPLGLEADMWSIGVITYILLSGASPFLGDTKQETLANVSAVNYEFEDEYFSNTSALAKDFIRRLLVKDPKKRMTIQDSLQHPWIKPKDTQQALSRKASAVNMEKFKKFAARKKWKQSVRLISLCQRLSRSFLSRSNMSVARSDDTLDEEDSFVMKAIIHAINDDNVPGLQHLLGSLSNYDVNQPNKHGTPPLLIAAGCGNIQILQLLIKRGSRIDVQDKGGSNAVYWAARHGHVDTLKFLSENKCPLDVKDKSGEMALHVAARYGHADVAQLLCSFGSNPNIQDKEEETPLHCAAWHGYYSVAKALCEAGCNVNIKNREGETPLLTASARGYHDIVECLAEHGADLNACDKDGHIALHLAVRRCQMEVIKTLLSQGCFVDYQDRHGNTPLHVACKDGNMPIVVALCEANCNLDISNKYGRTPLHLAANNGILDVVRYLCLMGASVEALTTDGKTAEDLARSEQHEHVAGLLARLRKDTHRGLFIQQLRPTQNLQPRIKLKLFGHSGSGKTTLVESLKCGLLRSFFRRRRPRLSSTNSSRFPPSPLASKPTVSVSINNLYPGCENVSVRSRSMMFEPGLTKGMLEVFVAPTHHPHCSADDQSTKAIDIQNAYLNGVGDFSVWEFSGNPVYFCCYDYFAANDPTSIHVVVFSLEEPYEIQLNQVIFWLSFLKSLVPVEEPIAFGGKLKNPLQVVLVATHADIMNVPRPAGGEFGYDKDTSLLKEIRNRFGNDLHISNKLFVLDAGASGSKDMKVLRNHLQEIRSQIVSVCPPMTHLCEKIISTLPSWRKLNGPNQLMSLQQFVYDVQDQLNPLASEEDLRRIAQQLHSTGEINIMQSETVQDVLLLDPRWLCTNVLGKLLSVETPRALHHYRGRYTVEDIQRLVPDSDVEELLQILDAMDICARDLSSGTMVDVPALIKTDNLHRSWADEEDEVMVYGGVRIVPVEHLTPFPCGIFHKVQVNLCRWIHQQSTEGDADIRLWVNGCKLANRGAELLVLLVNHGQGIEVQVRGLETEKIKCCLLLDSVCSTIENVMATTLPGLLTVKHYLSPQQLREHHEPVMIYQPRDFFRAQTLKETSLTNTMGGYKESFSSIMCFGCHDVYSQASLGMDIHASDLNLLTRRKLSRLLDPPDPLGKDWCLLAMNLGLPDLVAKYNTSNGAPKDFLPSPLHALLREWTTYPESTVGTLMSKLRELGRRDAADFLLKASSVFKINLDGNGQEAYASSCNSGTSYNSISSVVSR
Sequence of MAP/microtubule affinity-regulating kinase 4 (Q96L34 whole entry, canonical isoform): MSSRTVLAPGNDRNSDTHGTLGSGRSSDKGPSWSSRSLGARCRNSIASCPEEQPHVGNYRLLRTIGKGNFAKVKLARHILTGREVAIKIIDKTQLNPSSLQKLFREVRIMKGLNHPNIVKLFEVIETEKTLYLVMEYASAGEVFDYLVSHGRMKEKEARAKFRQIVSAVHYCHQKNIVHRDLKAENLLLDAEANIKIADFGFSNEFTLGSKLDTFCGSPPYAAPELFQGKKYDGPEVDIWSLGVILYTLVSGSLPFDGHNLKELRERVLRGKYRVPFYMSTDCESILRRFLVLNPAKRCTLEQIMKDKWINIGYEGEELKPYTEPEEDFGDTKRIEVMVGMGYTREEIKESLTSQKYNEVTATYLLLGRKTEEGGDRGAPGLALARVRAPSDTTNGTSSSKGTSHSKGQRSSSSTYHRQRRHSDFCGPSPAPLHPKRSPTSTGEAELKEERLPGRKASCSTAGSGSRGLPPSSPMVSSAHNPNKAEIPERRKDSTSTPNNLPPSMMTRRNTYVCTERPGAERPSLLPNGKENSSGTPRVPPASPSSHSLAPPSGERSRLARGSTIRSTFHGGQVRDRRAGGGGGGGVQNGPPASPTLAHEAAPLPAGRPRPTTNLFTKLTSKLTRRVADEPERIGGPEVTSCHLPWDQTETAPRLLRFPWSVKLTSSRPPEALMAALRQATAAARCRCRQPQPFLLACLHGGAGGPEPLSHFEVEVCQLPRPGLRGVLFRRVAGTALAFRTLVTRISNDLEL
Sequence of Ribosomal protein S6 kinase alpha-1 (Q15418 whole entry): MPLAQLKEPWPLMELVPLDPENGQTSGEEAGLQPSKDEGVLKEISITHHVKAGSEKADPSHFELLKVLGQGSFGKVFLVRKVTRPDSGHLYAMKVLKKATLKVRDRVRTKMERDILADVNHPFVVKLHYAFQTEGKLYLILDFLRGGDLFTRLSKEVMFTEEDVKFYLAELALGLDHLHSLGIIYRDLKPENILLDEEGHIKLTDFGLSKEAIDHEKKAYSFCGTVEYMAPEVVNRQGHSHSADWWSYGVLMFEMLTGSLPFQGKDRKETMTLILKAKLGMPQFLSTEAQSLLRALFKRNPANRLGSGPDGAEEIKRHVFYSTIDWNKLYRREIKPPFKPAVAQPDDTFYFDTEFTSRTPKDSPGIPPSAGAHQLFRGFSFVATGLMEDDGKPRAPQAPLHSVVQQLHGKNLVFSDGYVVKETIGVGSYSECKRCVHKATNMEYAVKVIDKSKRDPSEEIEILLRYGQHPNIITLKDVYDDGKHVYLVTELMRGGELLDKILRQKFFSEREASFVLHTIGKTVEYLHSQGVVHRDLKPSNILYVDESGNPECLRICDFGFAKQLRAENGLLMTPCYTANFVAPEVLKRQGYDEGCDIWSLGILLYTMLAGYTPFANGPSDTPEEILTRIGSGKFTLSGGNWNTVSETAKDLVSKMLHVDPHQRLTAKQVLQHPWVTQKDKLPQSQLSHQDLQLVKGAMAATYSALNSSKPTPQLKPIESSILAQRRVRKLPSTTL
Sequence of Ephrin type-A receptor 8 (P29322 whole entry, the tested form may be a part): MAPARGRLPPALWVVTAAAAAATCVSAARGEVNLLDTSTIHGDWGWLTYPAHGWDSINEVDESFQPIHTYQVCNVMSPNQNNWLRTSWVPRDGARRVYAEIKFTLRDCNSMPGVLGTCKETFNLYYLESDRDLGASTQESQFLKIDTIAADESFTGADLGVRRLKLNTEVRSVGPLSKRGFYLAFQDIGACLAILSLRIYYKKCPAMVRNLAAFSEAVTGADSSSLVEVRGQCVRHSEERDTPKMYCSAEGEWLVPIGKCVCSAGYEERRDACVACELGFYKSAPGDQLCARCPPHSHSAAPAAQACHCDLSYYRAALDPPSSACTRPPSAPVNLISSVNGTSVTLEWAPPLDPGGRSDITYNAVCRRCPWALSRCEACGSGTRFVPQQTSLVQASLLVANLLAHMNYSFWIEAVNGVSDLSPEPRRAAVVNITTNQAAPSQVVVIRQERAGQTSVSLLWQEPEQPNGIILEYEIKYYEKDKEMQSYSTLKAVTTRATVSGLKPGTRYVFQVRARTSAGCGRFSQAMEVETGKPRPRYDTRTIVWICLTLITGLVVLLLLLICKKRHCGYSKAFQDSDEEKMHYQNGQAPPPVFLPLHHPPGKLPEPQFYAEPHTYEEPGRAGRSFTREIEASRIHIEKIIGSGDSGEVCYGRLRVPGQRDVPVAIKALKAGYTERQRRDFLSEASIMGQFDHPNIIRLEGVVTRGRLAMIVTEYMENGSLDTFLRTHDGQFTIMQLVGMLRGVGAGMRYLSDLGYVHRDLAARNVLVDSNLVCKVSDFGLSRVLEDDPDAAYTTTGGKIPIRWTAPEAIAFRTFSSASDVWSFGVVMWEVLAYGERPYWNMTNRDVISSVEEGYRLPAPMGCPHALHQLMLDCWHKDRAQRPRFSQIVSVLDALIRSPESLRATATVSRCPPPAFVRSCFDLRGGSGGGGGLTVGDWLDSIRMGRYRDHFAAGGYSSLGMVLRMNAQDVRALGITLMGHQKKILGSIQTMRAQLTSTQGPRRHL
Sequence of Phosphorylase b kinase gamma catalytic chain, liver/testis isoform (P15735 whole entry F290L, the tested form may be a part, canonical isoform): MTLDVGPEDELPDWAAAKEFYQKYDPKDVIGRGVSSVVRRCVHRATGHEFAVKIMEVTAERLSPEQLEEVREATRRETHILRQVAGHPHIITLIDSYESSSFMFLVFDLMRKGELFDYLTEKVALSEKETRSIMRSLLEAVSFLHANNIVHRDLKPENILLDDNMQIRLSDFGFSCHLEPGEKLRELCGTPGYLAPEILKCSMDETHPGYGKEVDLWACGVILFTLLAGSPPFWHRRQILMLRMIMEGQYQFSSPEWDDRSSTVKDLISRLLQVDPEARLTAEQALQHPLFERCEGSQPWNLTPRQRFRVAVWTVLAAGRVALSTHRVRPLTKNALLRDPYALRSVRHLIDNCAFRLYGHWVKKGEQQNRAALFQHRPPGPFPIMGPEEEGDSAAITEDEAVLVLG

Work on `CN(C)c1ccc(C(=O)Nc2cccc(NC(=O)COc3ccc4c(=O)ccoc4c3)c2)cc1` yielded a pIC50 [1] of less than 5.00, a pIC50 [2] of less than 5.00 and a pIC50 [3] of less than 5.00. It also gave a pIC50 [4] of less than 5.00, a pIC50 [5] of less than 5.00 and a pIC50 [6] of less than 5.00. For the same molecule, the pIC50 [7] was less than 5.00, the pIC50 [8] was less than 5.00 and the half-life [9] was 1.1 min. For the same molecule, the pIC50 [10] was less than 5.00, the pIC50 [11] was less than 5.00 and the pIC50 [12] was less than 5.00. The pIC50 [13] was less than 5.00, the solubility thermodynamic [14] was 0.634 µg/mL (≈ 1.39 µM) and the pIC50 [15] was less than 5.00. For the same molecule, the pIC50 [16] was less than 5.00, the pIC50 [17] was less than 5.00 and the pIC50 (Tau-tubulin kinase 2) was less than 5.00. It also gave a pIC50 [18] of less than 5.00, a pIC50 (Ephrin type-A receptor 8) of less than 5.00 and a pIC50 [19] of less than 5.00. For the same molecule, the pIC50 [20] was 7.85, the pIC50 [21] was less than 5.00 and the pIC50 [22] was less than 5.00. The pIC50 [23] was less than 5.00 and the pIC50 [24] was less than 5.00.
